Experimental data from PubChem BioAssay (NCI).
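All cell lines were grown in 96-well plates and treated with compound for 48 hours. GI50 is the concentration that inhibits growth by half. TGI: total growth inhibition.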

Tests used:
Experiment in all cases: inhibition of tumour cell growth, NCI panel, 48 h
[1] = test system: 786-0 renal
[2] = test system: A498 renal
[3] = test system: A549 NSCLC
[4] = test system: ACHN renal
[5] = test system: CCRF-CEM leukemia
[6] = test system: COLO 205 colon
[7] = test system: DU-145 prostate
[8] = test system: EKVX NSCLC
[9] = test system: HCT-116 colon
[10] = test system: HCT-15 colon
[11] = test system: HOP-62 NSCLC
[12] = test system: HOP-92 NSCLC
[13] = test system: HS 578T breast
[14] = test system: HT29 colon
[15] = test system: IGROV1 ovarian
[16] = test system: K-562 leukemia
[17] = test system: KM12 colon
[18] = test system: LOX IMVI melanoma
[19] = test system: M14 melanoma
[20] = test system: MALME-3M melanoma
[21] = test system: MCF7 breast
[22] = test system: MDA-MB-231 breast
[23] = test system: MDA-MB-435
[24] = test system: MDA-N
[25] = test system: MOLT-4 leukemia
[26] = test system: NCI-H226 lung
[27] = test system: NCI-H23 lung
[28] = test system: NCI-H522 lung
[29] = test system: NCI/ADR-RES ovarian
[30] = test system: OVCAR-3 ovarian
[31] = test system: OVCAR-4 ovarian
[32] = test system: OVCAR-5 ovarian
[33] = test system: OVCAR-8 ovarian
[34] = test system: PC-3 prostate
[35] = test system: RPMI-8226 leukemia
[36] = test system: SF-268 CNS
[37] = test system: SF-295 CNS
[38] = test system: SK-MEL-2 melanoma
[39] = test system: SK-MEL-28 melanoma
[40] = test system: SK-MEL-5 melanoma
[41] = test system: SK-OV-3 ovarian
[42] = test system: SN12C renal
[43] = test system: SNB-19 CNS
[44] = test system: SNB-75 CNS
[45] = test system: SR leukemia
[46] = test system: SW-620 colon
[47] = test system: TK-10 renal
[48] = test system: U251 CNS
[49] = test system: UACC-62 melanoma
[50] = test system: UO-31 renal
[51] = test system: BT-549 breast
[52] = test system: CAKI-1 renal
[53] = test system: HCC-2998 colon
[54] = test system: HL-60(TB) leukemia
[55] = test system: NCI-H460 lung
[56] = test system: RXF 393 renal
[57] = test system: SF-539 CNS
[58] = test system: T-47D breast
[59] = test system: UACC-257 melanoma

C/C1=C\[C@H](C)C[C@H](C)OC(=O)C[C@H](c2ccc(O)cc2)NC(=O)[C@H](Cc2ccc(O)c(Br)c2)N(C)C(=O)[C@H](C)NC(=O)[C@@H](C)C1
TGI [1]: > 25 µM
TGI [2]: > 25 µM
TGI [3]: > 25 µM
TGI [4]: > 25 µM
TGI [5]: > 25 µM
TGI [6]: > 25 µM
TGI [7]: > 25 µM
TGI [8]: > 25 µM
TGI [9]: > 25 µM
TGI [10]: > 25 µM
TGI [11]: > 25 µM
TGI [12]: > 25 µM
TGI [13]: > 25 µM
TGI [14]: > 25 µM
TGI [15]: > 25 µM
TGI [16]: > 25 µM
TGI [17]: > 25 µM
TGI [18]: > 25 µM
TGI [19]: > 25 µM
TGI [20]: > 25 µM
TGI [21]: > 25 µM
TGI [22]: > 25 µM
TGI [23]: > 25 µM
TGI [24]: > 25 µM
TGI [25]: > 25 µM
TGI [26]: > 25 µM
TGI [27]: > 25 µM
TGI [28]: > 25 µM
TGI [29]: > 25 µM
TGI [30]: > 25 µM
TGI [31]: > 25 µM
TGI [32]: > 25 µM
TGI [33]: > 25 µM
TGI [34]: > 25 µM
TGI [35]: > 25 µM
TGI [36]: > 25 µM
TGI [37]: > 25 µM
TGI [38]: > 25 µM
TGI [39]: > 25 µM
TGI [40]: > 25 µM
TGI [41]: > 25 µM
TGI [42]: > 25 µM
TGI [43]: > 25 µM
TGI [44]: > 25 µM
TGI [45]: > 25 µM
TGI [46]: > 25 µM
TGI [47]: > 25 µM
TGI [48]: > 25 µM
TGI [49]: > 25 µM
TGI [50]: > 25 µM

Nc1nc(N)c2c(ccc3nccc32)[nH]1
GI50 [1]: 7.01 µM
TGI [1]: > 100 µM
GI50 [2]: 18.3 µM
TGI [2]: 98.3 µM
GI50 [3]: 0.755 µM
TGI [3]: > 100 µM
GI50 [4]: 4.24 µM
TGI [4]: 36 µM
GI50 [51]: 3.06 µM
TGI [51]: 24.1 µM
GI50 [52]: 2.82 µM
TGI [52]: 12.8 µM
GI50 [5]: 1.57 µM
TGI [5]: > 100 µM
GI50 [6]: 8.03 µM
TGI [6]: 50.9 µM
GI50 [7]: 8.61 µM
TGI [7]: 57.4 µM
GI50 [8]: 2.22 µM
TGI [8]: > 100 µM
GI50 [53]: 9.79 µM
TGI [53]: > 91 µM
GI50 [9]: 0.934 µM
TGI [9]: > 71.2 µM
GI50 [10]: 2.35 µM
TGI [10]: > 100 µM
GI50 [54]: 2.53 µM
TGI [54]: > 78.8 µM
GI50 [11]: 24.8 µM
TGI [11]: > 100 µM
GI50 [12]: 4.18 µM
TGI [12]: 30.6 µM
GI50 [13]: > 21.8 µM
TGI [13]: > 64.7 µM
GI50 [14]: 1.67 µM
TGI [14]: > 73.9 µM
GI50 [15]: 2.34 µM
TGI [15]: 9.35 µM
GI50 [16]: 0.319 µM
TGI [16]: > 100 µM
GI50 [17]: 5.05 µM
TGI [17]: 27.1 µM
GI50 [18]: 0.839 µM
TGI [18]: 16.6 µM
GI50 [19]: 1.92 µM
TGI [19]: > 79.8 µM
GI50 [20]: 5.28 µM
TGI [20]: 33.6 µM
GI50 [21]: 2.26 µM
TGI [21]: 15.5 µM
GI50 [22]: 13.5 µM
TGI [22]: 50 µM
GI50 [23]: 0.688 µM
TGI [23]: 35.4 µM
GI50 [25]: 3.12 µM
TGI [25]: > 92.1 µM
GI50 [26]: 15.2 µM
TGI [26]: > 88.9 µM
GI50 [27]: 6.46 µM
TGI [27]: > 100 µM
GI50 [55]: 0.439 µM
TGI [55]: 14.5 µM
GI50 [28]: 4.88 µM
TGI [28]: 24.3 µM
GI50 [29]: 6.61 µM
TGI [29]: > 100 µM
GI50 [30]: 7.68 µM
TGI [30]: 36.6 µM
GI50 [31]: 21.5 µM
TGI [31]: 66.6 µM
GI50 [32]: 12.4 µM
TGI [32]: > 100 µM
GI50 [33]: 4.62 µM
TGI [33]: > 100 µM
GI50 [34]: 1.63 µM
TGI [34]: > 64.2 µM
GI50 [35]: 3.73 µM
TGI [35]: 21.7 µM
GI50 [56]: 3.09 µM
TGI [56]: 17.8 µM
GI50 [36]: 2.11 µM
TGI [36]: 56.2 µM
GI50 [37]: 1.95 µM
TGI [37]: > 91.3 µM
GI50 [57]: 3.26 µM
TGI [57]: > 86.1 µM
GI50 [38]: 10.1 µM
TGI [38]: 37.1 µM
GI50 [39]: 14.7 µM
TGI [39]: > 93.8 µM
GI50 [40]: 2.28 µM
TGI [40]: > 33.9 µM
GI50 [41]: 18.4 µM
TGI [41]: > 81.5 µM
GI50 [42]: 6.91 µM
TGI [42]: > 68.6 µM
GI50 [43]: 7.98 µM
TGI [43]: > 100 µM
GI50 [44]: 17.2 µM
TGI [44]: 89.4 µM
GI50 [45]: 1.29 µM
GI50 [46]: 1.03 µM
TGI [46]: > 77.3 µM
GI50 [58]: 14.9 µM
TGI [58]: > 80 µM
GI50 [47]: 17.4 µM
TGI [47]: > 86.8 µM
GI50 [48]: 3.22 µM
TGI [48]: > 69.5 µM
GI50 [59]: 1.54 µM
TGI [59]: 17.9 µM
GI50 [49]: 2.67 µM
TGI [49]: 17.6 µM
GI50 [50]: 4.14 µM
TGI [50]: 31.1 µM

O=c1cc(-c2ccccc2)oc2ccc(-c3ccc4oc(-c5ccccc5)cc(=O)c4c3)cc12
TGI [1]: 72.5 µM
TGI [2]: 27.9 µM
TGI [3]: 50.6 µM
TGI [4]: 59.2 µM
TGI [52]: 46 µM
TGI [5]: 43.7 µM
TGI [6]: 41.5 µM
TGI [8]: 20.1 µM
TGI [53]: 30 µM
TGI [9]: 31.2 µM
TGI [10]: 30 µM
TGI [54]: 27.8 µM
TGI [11]: 36.5 µM
TGI [12]: 30.8 µM
TGI [13]: 37.4 µM
TGI [14]: > 100 µM
TGI [15]: 84.5 µM
TGI [16]: 34.3 µM
TGI [18]: 33.2 µM
TGI [19]: 30.2 µM
TGI [20]: 34.7 µM
TGI [21]: 42.1 µM
TGI [23]: 35.7 µM
TGI [24]: 29 µM
TGI [25]: 27.5 µM
TGI [27]: 34.5 µM
TGI [55]: 41.9 µM
TGI [29]: 51.5 µM
TGI [31]: 38.9 µM
TGI [32]: > 100 µM
TGI [33]: 35.2 µM
TGI [35]: 32.6 µM
TGI [37]: 43.4 µM
TGI [57]: 30.8 µM
TGI [38]: 32.7 µM
TGI [40]: 25.5 µM
TGI [41]: > 100 µM
TGI [43]: 50 µM
TGI [46]: > 100 µM
TGI [47]: 61.6 µM
TGI [49]: 31.8 µM
TGI [50]: 21.7 µM
